Measurements taken from publication PMC12307812 (Nature Communications, 2025).
Read-outs that look alike come from different tables or passages of the source.

Assays:
[1] = test system: pseudovirus bearing VSV-G; assay: organism not typed; type: cell-based; conditions: Calu-3
[2] = test system: pseudovirus bearing S protein of SARS-CoV-2 lineage B.1; assay: organism not typed; type: cell-based
[3] = test system: pseudovirus bearing S protein of SARS-CoV-2 lineage EG.5.1; assay: organism not typed; type: cell-based
[4] = test system: pseudovirus bearing S protein of SARS-CoV-2 lineage B.1.617.2; assay: organism not typed; type: cell-based
[5] = test system: pseudovirus bearing S protein of MERS-CoV; assay: organism not typed; type: cell-based
[6] = test system: pseudovirus bearing S protein of HCoV-229E; assay: organism not typed; type: cell-based
[7] = biological target: T1, Recombinant Human TMPRSS2 (Homo sapiens, UniProt O15393); assay: TMPRSS2 biochemical assay (Boc-Gln-Ala-Arg-AMC fluorogenic substrate)
T1 construct: human TMPRSS2 residues 106492, N-terminal 6x His-tag; 6x His-tag (N); purchased Cusabio CSB-YP023924HU; host or cells: yeast
T1 sequence (O15393 106-492 limits assumed): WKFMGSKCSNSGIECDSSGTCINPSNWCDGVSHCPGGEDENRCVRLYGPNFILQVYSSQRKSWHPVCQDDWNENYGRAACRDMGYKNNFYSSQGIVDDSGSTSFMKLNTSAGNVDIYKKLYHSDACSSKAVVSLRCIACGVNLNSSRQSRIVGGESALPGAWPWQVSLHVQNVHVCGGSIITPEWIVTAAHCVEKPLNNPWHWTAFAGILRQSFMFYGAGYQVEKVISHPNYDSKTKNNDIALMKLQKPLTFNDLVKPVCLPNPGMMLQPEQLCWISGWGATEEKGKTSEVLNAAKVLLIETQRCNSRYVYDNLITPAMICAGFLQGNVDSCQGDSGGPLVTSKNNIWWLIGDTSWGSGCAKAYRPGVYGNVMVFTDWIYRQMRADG
Experimental: Inhibitors of TMPRSS2 were tested using a high throughput activity assay. […] TMPRSS2 (5 µl, 0.018 mg/ml) in assay buffer (50 mM Tris pH 8, 150 mM NaCl, 0.01% Tween20) was dispensed to that, using a BioRAPTR (Beckman Coulter), for a total assay volume of 5 µl.
After incubation at room temperature for 1 h, fluorescence was measured. […] Raw plate reads for each titration point were normalized relative to a positive control containing no enzyme (0% activity, full inhibition) and a negative control containing DMSO-only wells (100% activity, basal activity). Data normalization was performed using GraphPad Prism (GraphPad Software, San Diego, CA).
We employed the curve fitting algorithm available in the SciPy package (version 1.10.1)[61] to derive the Hill slope and the IC50 value, along with their corresponding error estimates.

[8] = test system: pseudovirus bearing S protein of SARS-CoV-1; assay: organism not typed; type: cell-based
[9] = test system: pseudovirus bearing S protein of SARS-CoV-2 lineage BA.2.86; assay: organism not typed; type: cell-based
[10] = Calu-3, read-out: mean inhibition

CC(C)(C)NC(=O)N1CCN(C(=O)N2C(=O)C(CCCNC(=N)N)C2C(=O)O)CC1 (centres unmarked) [BMS-262084] showed an inhibition at 0.00025 µM ([1]; concentration 0.25 nM) of 2.19%, an inhibition at 0.0025 µM ([1]; concentration 2.5 nM) of 1.17% and an inhibition at 0.025 µM ([1]; concentration 25 nM) of 1.08%. It also gave an inhibition at 0.25 µM ([1]; concentration 250 nM) of 0.456%, an inhibition at 2.5 µM ([1]; concentration 2500 nM) of 0.565% and an inhibition at 25 µM ([1]; concentration 25000 nM) of -2.28%. For the same molecule, the inhibition at 0.00025 µM ([2]; Calu-3, B.1, concentration 0.25 nM) was 7.25%, the inhibition at 0.0025 µM ([2]; Calu-3, B.1, concentration 2.5 nM) was 11.1% and the inhibition at 0.025 µM ([2]; Calu-3, B.1, concentration 25 nM) was 52.1%. For the same molecule, the inhibition at 0.25 µM ([2]; Calu-3, B.1, concentration 250 nM) was 86.2%, the inhibition at 2.5 µM ([2]; Calu-3, B.1, concentration 2500 nM) was 92.8% and the inhibition at 25 µM ([2]; Calu-3, B.1, concentration 25000 nM) was 93.3%. For the same molecule, the IC50 ([2]; Calu-3 cells, read-out: IC50, pseudovirus cell entry B.1) was 24.5 nM, the inhibition at 0.00025 µM ([3]; Calu-3, EG.5.1, concentration 0.25 nM) was 10.3% and the inhibition at 0.0025 µM ([3]; Calu-3, EG.5.1, concentration 2.5 nM) was 16.8%. The inhibition at 0.025 µM ([3]; Calu-3, EG.5.1, concentration 25 nM) was 26.9%, the inhibition at 0.25 µM ([3]; Calu-3, EG.5.1, concentration 250 nM) was 51.3% and the inhibition at 2.5 µM ([3]; Calu-3, EG.5.1, concentration 2500 nM) was 58.1%. For the same molecule, the inhibition at 25 µM ([3]; Calu-3, EG.5.1, concentration 25000 nM) was 57.8%, the “fold less efficient inhibition of EG.5.1-S entry compared to B.1-S, B.1.617.2-S or BA.2.86-S” value ([3]; Calu-3 cells) was 20–50 fold and the IC50 ([3]; Calu-3 cells, Fig. 4g, read-out: IC50 estimate, pseudovirus cell entry EG.5.1) was 1200 ± 763 nM. The IC50 ([3]; Calu-3 cells, read-out: IC50, EG.5.1-S protein-driven Calu-3 cell entry) was 1200 nM, the inhibition at 0.00025 µM ([4]; Calu-3, B.1.617.2, concentration 0.25 nM) was -3.95% and the inhibition at 0.0025 µM ([4]; Calu-3, B.1.617.2, concentration 2.5 nM) was 6%. It also gave an inhibition at 0.025 µM ([4]; Calu-3, B.1.617.2, concentration 25 nM) of 32.3%, an inhibition at 0.25 µM ([4]; Calu-3, B.1.617.2, concentration 250 nM) of 82.7% and an inhibition at 2.5 µM ([4]; Calu-3, B.1.617.2, concentration 2500 nM) of 96.1%. The inhibition at 25 µM ([4]; Calu-3, B.1.617.2, concentration 25000 nM) was 96.1%, the IC50 ([4]; Calu-3 cells, read-out: IC50, pseudovirus cell entry B.1.617.2) was 52.5 nM and the IC50 ([5]; Calu-3, read-out: IC50 estimate, pseudovirus cell entry MERS-S) was 101 ± 24.2 nM. For the same molecule, the inhibition at 0.00025 µM ([5]; Calu-3, concentration 0.25 nM) was 0.787%, the inhibition at 0.0025 µM ([5]; Calu-3, concentration 2.5 nM) was -4.71% and the inhibition at 0.025 µM ([5]; Calu-3, concentration 25 nM) was 29.1%. For the same molecule, the inhibition at 0.25 µM ([5]; Calu-3, concentration 250 nM) was 67.2%, the inhibition at 2.5 µM ([5]; Calu-3, concentration 2500 nM) was 89.3% and the inhibition at 25 µM ([5]; Calu-3, concentration 25000 nM) was 93%. For the same molecule, the IC50 ([6]; Calu-3, read-out: IC50 estimate, pseudovirus cell entry 229E-S) was 990 ± 209 nM, the inhibition at 0.00025 µM [6, 10] was 0.992% and the inhibition at 0.0025 µM [6, 10] was 8.96%. For the same molecule, the inhibition at 0.025 µM [6, 10] was 22%, the inhibition at 0.25 µM [6, 10] was 42.2% and the inhibition at 2.5 µM [6, 10] was 58.4%. The inhibition at 25 µM [6, 10] was 72.2%, the inhibition at 75.27 pM ([7]; concentration 0.0752671 nM) was 1.73% and the inhibition at 0.000225801 µM ([7]; concentration 0.225801 nM) was 16.6%. The inhibition at 0.000677404 µM ([7]; concentration 0.677404 nM) was 22.3%, the inhibition at 0.00203221 µM ([7]; concentration 2.03221 nM) was 54.4% and the inhibition at 0.00609663 µM ([7]; concentration 6.09663 nM) was 77.8%. For the same molecule, the inhibition at 0.0182899 µM ([7]; concentration 18.2899 nM) was 91.4%, the inhibition at 0.0548697 µM ([7]; concentration 54.8697 nM) was 94.8% and the inhibition at 0.164609 µM ([7]; concentration 164.609 nM) was 99.3%. It also gave an inhibition at 0.493827 µM ([7]; concentration 493.827 nM) of 97.2%, an inhibition at 1.48148 µM ([7]; concentration 1481.48 nM) of 99% and an inhibition at 4.44444 µM ([7]; concentration 4444.44 nM) of 98%. The inhibition at 13.3333 µM ([7]; concentration 13333.3 nM) was 98.8%, the inhibition at 40 µM ([7]; concentration 40000 nM) was 93.2% and the IC50 ([7]; read-out: IC50, inhibition in TMPRSS2 biochemical assay) was 1.82 nM. For the same molecule, the IC50 ([8]; Calu-3, read-out: IC50 estimate, pseudovirus cell entry SARS-1-S) was 82 ± 23.1 nM, the inhibition at 0.00025 µM ([8]; Calu-3, concentration 0.25 nM) was 3.34% and the inhibition at 0.0025 µM ([8]; Calu-3, concentration 2.5 nM) was 5.92%. The inhibition at 0.025 µM ([8]; Calu-3, concentration 25 nM) was 31.7%, the inhibition at 0.25 µM ([8]; Calu-3, concentration 250 nM) was 73.6% and the inhibition at 2.5 µM ([8]; Calu-3, concentration 2500 nM) was 80.6%. For the same molecule, the inhibition at 25 µM ([8]; Calu-3, concentration 25000 nM) was 91.7%, the inhibition at 0.00025 µM ([9]; Calu-3, BA.2.86, concentration 0.25 nM) was 2.76% and the inhibition at 0.0025 µM ([9]; Calu-3, BA.2.86, concentration 2.5 nM) was 1.45%. It also gave an inhibition at 0.025 µM ([9]; Calu-3, BA.2.86, concentration 25 nM) of 44.5%, an inhibition at 0.25 µM ([9]; Calu-3, BA.2.86, concentration 250 nM) of 74.7% and an inhibition at 2.5 µM ([9]; Calu-3, BA.2.86, concentration 2500 nM) of 89.7%. The inhibition at 25 µM ([9]; Calu-3, BA.2.86, concentration 25000 nM) was 98.9% and the IC50 ([9]; Calu-3 cells, read-out: IC50, pseudovirus cell entry BA.2.86) was 48.2 nM.
